pIC50, pKi: −log10 of the molar value.
Tests used:
[1] = biological target: T1, Amine oxidase [flavin-containing] B (Homo sapiens, UniProt P27338); test: Inhibition of human recombinant MAOB assessed as kynuramine conversion to 4-hydroxyquinoline after 20 mins by fluorescence assay
T1 sequence (P27338 whole entry): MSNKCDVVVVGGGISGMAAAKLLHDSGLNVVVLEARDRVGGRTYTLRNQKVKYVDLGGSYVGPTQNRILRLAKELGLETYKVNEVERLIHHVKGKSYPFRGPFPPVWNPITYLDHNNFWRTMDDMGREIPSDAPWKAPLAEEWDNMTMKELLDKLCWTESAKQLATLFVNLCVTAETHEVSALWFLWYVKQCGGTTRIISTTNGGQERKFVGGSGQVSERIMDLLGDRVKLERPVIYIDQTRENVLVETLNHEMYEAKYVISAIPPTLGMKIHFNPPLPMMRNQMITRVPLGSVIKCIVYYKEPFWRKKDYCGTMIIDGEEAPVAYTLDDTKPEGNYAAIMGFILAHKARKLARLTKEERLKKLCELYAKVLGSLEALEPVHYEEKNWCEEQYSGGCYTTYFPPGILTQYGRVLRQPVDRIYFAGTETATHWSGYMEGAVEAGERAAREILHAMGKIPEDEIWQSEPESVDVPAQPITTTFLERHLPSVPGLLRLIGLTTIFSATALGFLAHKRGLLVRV

[2] = biological target: T2, Amine oxidase [flavin-containing] A (Homo sapiens, UniProt P21397); test: Inhibition of human recombinant MAOA assessed as kynuramine conversion to 4-hydroxyquinoline after 20 mins by fluorescence assay
T2 sequence (P21397 whole entry): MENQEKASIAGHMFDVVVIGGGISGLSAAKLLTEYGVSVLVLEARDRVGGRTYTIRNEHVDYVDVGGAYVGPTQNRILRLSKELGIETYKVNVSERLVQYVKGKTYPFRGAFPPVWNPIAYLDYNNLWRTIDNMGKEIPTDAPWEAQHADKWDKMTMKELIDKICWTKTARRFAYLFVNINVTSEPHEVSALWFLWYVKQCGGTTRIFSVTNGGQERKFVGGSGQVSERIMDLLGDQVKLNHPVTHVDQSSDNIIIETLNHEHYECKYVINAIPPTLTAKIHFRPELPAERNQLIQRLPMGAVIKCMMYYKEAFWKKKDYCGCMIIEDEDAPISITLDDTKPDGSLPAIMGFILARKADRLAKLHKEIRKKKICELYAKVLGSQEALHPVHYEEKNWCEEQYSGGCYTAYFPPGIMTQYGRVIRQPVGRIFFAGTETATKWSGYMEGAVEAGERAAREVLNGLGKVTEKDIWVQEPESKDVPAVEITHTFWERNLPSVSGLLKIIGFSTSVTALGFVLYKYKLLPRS

[3] = biological target: T1, Amine oxidase [flavin-containing] B; test: Binding affinity to human recombinant MAOB
[4] = biological target: T2, Amine oxidase [flavin-containing] A; test: Binding affinity to human recombinant MAOA
[5] = species on record: Homo sapiens; test: Selectivity index, ratio of Ki for human recombinant MAOA to Ki for human recombinant MAOB

SMILES: c1ccc(NCc2ccccn2)cc1
- pIC50 [1]: 3.74
- pIC50 [2]: 4.70
- pKi [3]: 4.01
- pKi [4]: 5.24
- Ratio Ki [5]: 0.06

SMILES: CN(C)c1ccc(/N=C/c2ccccn2)cc1
- pIC50 [1]: 7.17
- pIC50 [2]: 6.44
- pKi [3]: 7.40
- pKi [4]: 7.00
- Ratio Ki [5]: 2.8

From ChEMBL document CHEMBL3217687, “Identification of multifunctional small molecule-based reversible monoamine oxidase inhibitors” (Medchemcomm, 2011)
